From patent US12692232B2, “Indole carboxamide compound, preparation therefor and use thereof” (NANJING RUISHUNING MEDICAL TECHNOLOGY CO., LTD., priority 2021, dated 2026)
pIC50: −log10 of the molar value.

Target: T1, TRPC6 channel (Homo sapiens, UniProt Q9Y210)
T1 sequence (Q9Y210 1-931): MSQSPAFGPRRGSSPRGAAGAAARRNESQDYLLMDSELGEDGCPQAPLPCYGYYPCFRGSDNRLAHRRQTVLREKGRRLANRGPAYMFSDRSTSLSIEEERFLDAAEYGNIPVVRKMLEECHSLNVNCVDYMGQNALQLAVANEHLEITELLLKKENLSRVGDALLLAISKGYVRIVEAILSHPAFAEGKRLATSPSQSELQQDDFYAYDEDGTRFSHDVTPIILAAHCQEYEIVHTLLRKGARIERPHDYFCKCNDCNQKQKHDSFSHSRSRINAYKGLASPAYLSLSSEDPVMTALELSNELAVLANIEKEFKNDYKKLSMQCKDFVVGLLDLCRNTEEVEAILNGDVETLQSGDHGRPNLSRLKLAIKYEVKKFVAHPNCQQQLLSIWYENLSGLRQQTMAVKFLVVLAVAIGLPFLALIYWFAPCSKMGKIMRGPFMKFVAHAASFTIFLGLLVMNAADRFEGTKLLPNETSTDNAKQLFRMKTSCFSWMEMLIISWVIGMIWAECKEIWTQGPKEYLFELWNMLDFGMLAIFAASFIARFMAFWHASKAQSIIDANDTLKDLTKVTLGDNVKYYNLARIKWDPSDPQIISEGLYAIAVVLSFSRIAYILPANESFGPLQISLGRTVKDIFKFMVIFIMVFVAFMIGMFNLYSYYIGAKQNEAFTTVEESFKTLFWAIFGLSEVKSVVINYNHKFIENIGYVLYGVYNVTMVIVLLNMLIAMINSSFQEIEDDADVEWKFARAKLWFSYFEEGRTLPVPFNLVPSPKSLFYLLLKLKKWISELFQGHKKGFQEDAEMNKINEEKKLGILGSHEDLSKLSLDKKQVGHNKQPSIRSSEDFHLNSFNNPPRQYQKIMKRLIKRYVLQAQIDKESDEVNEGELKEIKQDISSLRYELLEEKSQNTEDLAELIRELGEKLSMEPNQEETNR
Test: IC50 on TRPC6 channel-mediated Ca2+ entry in HEK293hTRPC6 cells
Assay type: cell-based
Parameters: expressed in transfected cells; host or cells: HEK293 (lentiviral transduction, puromycin selection)
Conditions: HEK293hTRPC6, OAG 80 μM, Ca2+ 2 mM
Method: The half maximal inhibitory concentrations (IC50) of the compounds of the present invention (as exemplified by Compound 1-1 obtained in Example 1) on TRPC6 channel-mediated Ca^2+ entry were determined using HEK293hTRPC6, a tool cell overexpressing TRPC6 protein. Methods were as follows: HEK293hTRPC6, a tool cell overexpressing TRPC6 protein, was established in the same manner as in Example 7.
Determination of the effect of compounds on changes in intracellular calcium ion concentration in HEK293hTRPC6 cells: the mother solution of the compounds was diluted to the following concentrations, 0.1 nM, 0.3 nM, 1 nM, 3 nM, 10 nM, 30 nM, 100 nM, 300 nM, 1,000 nM, and 3,000 nM, respectively, using cell culture medium. […] The crawls were placed in the center of the bath, perfused with calcium-free Tyrode's solution for 5 min and fixed on the stage of an inverted fluorescence microscope. […] Fluorescence intensity was measured at different excitation wavelengths (340 nm, 380 nm) using a TILL Ion Imaging System (TILLvisION), and the value of fluorescence intensity emitted by intracellular fluorescent probe at different excitation wavelengths was substituted into the formula: [Ca^2+]i=Kd×β×(R−Rmin)/[…]. […] Dose-effect curves were fitted using GraphPad Prism software and the IC50 was calculated.

Row | Structure (SMILES) | pIC50
1 | Cn1c(C(=O)NCCC(=O)O)cc2ccccc21 [3-[(1-methyl-1H-indole-2-carbonyl)amino]propionic acid, reference compound] | 7.62
2 | CC(=O)OCCCNC(=O)c1c(C=O)c2ccccc2n1C [compound 1-1, propyl 3-[(3-formyl-1-methyl-1H-indole-2-carbonyl)amino]acetate] | 7.94
